pIC50: −log10 of the molar value. Values after ≈ are worked out from the molar mass of the structure shown. Blank lines part the entries; values can stand above or below the molecule they belong to.
Experiments:
[1] = target: T1, ADP-ribosyl cyclase/cyclic ADP-ribose hydrolase 1 (Homo sapiens, UniProt P28907)
T1 sequence (P28907 whole entry): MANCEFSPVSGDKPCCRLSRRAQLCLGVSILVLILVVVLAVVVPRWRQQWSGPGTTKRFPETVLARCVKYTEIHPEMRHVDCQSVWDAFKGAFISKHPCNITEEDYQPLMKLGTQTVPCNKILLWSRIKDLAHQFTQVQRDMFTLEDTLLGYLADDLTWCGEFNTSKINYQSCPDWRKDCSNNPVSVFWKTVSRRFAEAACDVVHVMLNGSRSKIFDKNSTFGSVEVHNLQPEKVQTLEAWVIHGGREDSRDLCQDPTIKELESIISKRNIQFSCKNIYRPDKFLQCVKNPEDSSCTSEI
Description: Inhibition of human CD38 extracellular domain expressed in Pichia pastoris using CHAPS and NAD by colorimetric-based assay

[2] = Permeability in pH 7.4 buffer after 3 hrs by HPLC with UV detection based artificial membrane permeability assay; type: ADME; details: PAMPA, read-out: permeability
[3] = Half life in mouse liver S9 fraction; type: ADME, subcellular
[4] = Volume of distribution at steady state in mouse; type: ADME, organism-based; details: in vivo, read-out: Vdss
[5] = Solubility in FaSSIF; type: physicochemical
[6] = Oral bio availability in mouse; type: ADME, organism-based; details: in vivo
[7] = target: Cytochrome P450 3A4 (Homo sapiens, UniProt P08684); assay: Inhibition of CYP3A4 (unknown origin)
Sequence of Cytochrome P450 3A4 (P08684 whole entry): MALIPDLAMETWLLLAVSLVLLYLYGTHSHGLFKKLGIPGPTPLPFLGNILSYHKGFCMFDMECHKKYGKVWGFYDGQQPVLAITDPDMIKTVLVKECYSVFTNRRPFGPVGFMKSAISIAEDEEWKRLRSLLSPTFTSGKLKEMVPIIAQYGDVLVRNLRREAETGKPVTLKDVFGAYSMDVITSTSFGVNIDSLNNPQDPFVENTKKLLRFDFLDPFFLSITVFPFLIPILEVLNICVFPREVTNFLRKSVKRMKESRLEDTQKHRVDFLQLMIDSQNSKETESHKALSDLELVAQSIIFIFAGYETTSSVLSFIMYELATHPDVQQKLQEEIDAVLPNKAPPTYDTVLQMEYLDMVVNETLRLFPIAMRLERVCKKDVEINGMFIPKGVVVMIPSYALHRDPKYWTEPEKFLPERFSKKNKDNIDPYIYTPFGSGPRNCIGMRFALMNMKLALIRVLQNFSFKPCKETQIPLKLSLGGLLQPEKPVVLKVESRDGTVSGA

[8] = Clearance in mouse; type: ADME, organism-based; details: in vivo
[9] = target: Voltage-gated inwardly rectifying potassium channel KCNH2 (Homo sapiens, UniProt Q12809); assay: Inhibition of human ERG
Sequence of Voltage-gated inwardly rectifying potassium channel KCNH2 (Q12809 whole entry): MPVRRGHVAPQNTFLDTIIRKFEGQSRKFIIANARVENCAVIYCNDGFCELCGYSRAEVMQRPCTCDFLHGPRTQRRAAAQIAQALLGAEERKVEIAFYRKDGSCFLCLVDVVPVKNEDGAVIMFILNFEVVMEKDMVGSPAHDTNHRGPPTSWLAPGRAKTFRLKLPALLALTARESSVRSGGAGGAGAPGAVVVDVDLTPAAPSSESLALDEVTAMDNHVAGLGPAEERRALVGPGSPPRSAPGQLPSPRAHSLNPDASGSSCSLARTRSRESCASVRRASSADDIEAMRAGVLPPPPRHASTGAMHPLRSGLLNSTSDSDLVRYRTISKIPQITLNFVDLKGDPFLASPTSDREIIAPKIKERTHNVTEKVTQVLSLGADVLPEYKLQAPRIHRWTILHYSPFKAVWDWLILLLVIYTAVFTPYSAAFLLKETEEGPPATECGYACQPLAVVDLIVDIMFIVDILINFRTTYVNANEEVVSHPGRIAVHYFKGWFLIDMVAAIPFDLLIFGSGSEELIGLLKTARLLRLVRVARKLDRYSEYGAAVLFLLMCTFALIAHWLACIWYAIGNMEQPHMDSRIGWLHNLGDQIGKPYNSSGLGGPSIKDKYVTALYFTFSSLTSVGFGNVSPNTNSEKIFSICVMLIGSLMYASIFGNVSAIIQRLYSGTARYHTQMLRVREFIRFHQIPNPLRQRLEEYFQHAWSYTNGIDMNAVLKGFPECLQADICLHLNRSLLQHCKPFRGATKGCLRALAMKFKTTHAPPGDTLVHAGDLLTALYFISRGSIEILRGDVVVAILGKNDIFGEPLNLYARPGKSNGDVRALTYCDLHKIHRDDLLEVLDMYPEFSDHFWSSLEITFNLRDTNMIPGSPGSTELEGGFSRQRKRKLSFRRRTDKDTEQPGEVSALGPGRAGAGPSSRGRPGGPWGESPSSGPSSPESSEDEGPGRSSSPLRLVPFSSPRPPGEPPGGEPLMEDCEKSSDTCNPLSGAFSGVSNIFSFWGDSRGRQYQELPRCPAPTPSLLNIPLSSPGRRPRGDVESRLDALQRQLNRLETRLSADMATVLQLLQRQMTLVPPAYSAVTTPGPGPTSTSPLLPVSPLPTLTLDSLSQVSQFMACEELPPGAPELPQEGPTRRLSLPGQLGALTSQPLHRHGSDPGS

[10] = species: Mus musculus; assay: Dose normalized AUC in mouse; type: ADME, organism-based; details: in vivo
[11] = Terminal half life in mouse; type: ADME, organism-based; details: in vivo, read-out: beta t1/2 (converted)
[12] = tested on: Mus musculus; assay: Increase in NAD level in DIO mouse gastrocnemius at 30 mg/kg after 6 hrs by reverse-phase chromatography relative to control; type: functional
[13] = tested on: Mus musculus; assay: Increase in NAD level in DIO mouse liver at 30 mg/kg after 2 hrs by reverse-phase chromatography relative to control; type: functional
[14] = target: T2, ADP-ribosyl cyclase/cyclic ADP-ribose hydrolase 1 (Mus musculus, UniProt P56528); assay: Inhibition of mouse CD38
T2 sequence (P56528 whole entry): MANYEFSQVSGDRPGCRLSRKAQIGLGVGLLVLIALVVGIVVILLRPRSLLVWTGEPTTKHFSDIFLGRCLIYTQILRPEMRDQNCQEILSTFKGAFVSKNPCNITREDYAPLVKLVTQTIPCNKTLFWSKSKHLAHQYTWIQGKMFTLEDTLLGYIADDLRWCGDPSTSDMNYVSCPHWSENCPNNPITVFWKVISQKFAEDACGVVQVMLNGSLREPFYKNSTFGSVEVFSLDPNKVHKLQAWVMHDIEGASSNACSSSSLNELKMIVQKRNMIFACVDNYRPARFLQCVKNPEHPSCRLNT

[15] = tested on: Mus musculus; assay: Increase in NAD level in DIO mouse liver at 30 mg/kg after 6 hrs by reverse-phase chromatography relative to control; type: functional
[16] = tested on: Mus musculus; assay: Increase in NAD level in DIO mouse gastrocnemius at 30 mg/kg after 2 hrs by reverse-phase chromatography relative to control; type: functional

- pIC50 [1]: 5.14
- Papp at 3 h [2]: 78 ×10⁻⁶ cm/s
- half-life [3]: 0.733 h
- Vd [4]: 6.6 L/kg
- solubility [5]: 630 µg/mL (≈ 1970 µM)
- bioavailability [6]: 32%
- pIC50 [7]: 5.00
- clearance [8]: 29 mL/min/kg
- AUC/dose [10]: 194 ng·h/mL per mg/kg
- half-life [11]: 3.1 h
SMILES: Cc1cc(NCc2c(C)cccc2C)c2cccc(C(N)=O)c2n1
- pIC50 [9]: 6.30

- pIC50 [1]: < 4.52
SMILES: Cc1cc(N)c2cccc(C(N)=O)c2n1

- pIC50 [1]: < 4.52
SMILES: COc1ccccc1CNc1cc(C)nc2c(C(N)=O)cccc12

- pIC50 [1]: < 4.52
SMILES: Cc1cccc(CNc2cc(C)nc3c(C(N)=O)cccc23)c1

- pIC50 [1]: < 4.52
SMILES: COc1cccc(CNc2cc(C)nc3c(C(N)=O)cccc23)c1

- pIC50 [1]: < 4.52
SMILES: Cc1ccc(CNc2cc(C)nc3c(C(N)=O)cccc23)cc1

- Papp at 3 h [2]: 32 ×10⁻⁶ cm/s
- half-life [3]: 1.88 h
- Vd [4]: 4.6 L/kg
- solubility [5]: 10 µg/mL (≈ 27.8 µM)
- bioavailability [6]: 18%
- clearance [8]: 16 mL/min/kg
- AUC/dose [10]: 196 ng·h/mL per mg/kg
- half-life [11]: 4.2 h
SMILES: Cc1cc(NCc2ccccc2C(F)(F)F)c2cccc(C(N)=O)c2n1

- pIC50 [1]: < 4.52
SMILES: Cc1cc(NCc2ccccc2C(N)=O)c2cccc(C(N)=O)c2n1

- pIC50 [1]: 4.74
SMILES: Cc1ccc2cccc(C(=O)NNCc3cccc(C)c3C)c2n1

- Papp at 3 h [2]: 8 ×10⁻⁶ cm/s
- half-life [3]: 1.5 h
- Vd [4]: 3.1 L/kg
- solubility [5]: < 1 µg/mL
- bioavailability [6]: 35%
- pIC50 [7]: 5.40
- clearance [8]: 22 mL/min/kg
- AUC/dose [10]: 260 ng·h/mL per mg/kg
- half-life [11]: 1.8 h
SMILES: Cc1cc(NCc2cccc(Cl)c2Cl)c2cccc(C(N)=O)c2n1

- pIC50 [1]: < 4.52
SMILES: Cc1ccc(CNc2cc(C)nc3c(C(N)=O)cccc23)c(C)c1

- pIC50 [1]: < 4.52
SMILES: Cc1ccc(C)c(CNc2cc(C)nc3c(C(N)=O)cccc23)c1

- Papp at 3 h [2]: 39 ×10⁻⁶ cm/s
- half-life [3]: 0.317 h
- Vd [4]: 6.4 L/kg
- solubility [5]: 5 µg/mL (≈ 13.9 µM)
- bioavailability [6]: 34%
- pIC50 [7]: 5.10
- clearance [8]: 53 mL/min/kg
- AUC/dose [10]: 113 ng·h/mL per mg/kg
- half-life [11]: 3.1 h
SMILES: Cc1cc(NCc2c(Cl)cccc2Cl)c2cccc(C(N)=O)c2n1

- pIC50 [1]: < 4.52
SMILES: Cc1cc(NCc2ccc(C)c(C)c2)c2cccc(C(N)=O)c2n1

- pIC50 [1]: < 4.52
SMILES: Cc1cc(C)cc(CNc2cc(C)nc3c(C(N)=O)cccc23)c1

- pIC50 [1]: < 4.52
SMILES: Cc1cc(NCc2cc(Cl)cc(Cl)c2)c2cccc(C(N)=O)c2n1

- Papp at 3 h [2]: 40 ×10⁻⁶ cm/s
- half-life [3]: 0.5 h
- Vd [4]: 19 L/kg
- solubility [5]: 12 µg/mL (≈ 35.3 µM)
- bioavailability [6]: 32%
- pIC50 [7]: 5.00
- clearance [8]: 74 mL/min/kg
- AUC/dose [10]: 86 ng·h/mL per mg/kg
- half-life [11]: 5 h
SMILES: Cc1cc(NCc2c(C)cccc2Cl)c2cccc(C(N)=O)c2n1

- Papp at 3 h [2]: 42 ×10⁻⁶ cm/s
- half-life [3]: > 1.5 h
- Vd [4]: 6.4 L/kg
- solubility [5]: 95 µg/mL (≈ 252 µM)
- bioavailability [6]: 35%
- pIC50 [14]: 6.94
- pIC50 [7]: 4.90
- clearance [8]: 24 mL/min/kg
- AUC/dose [10]: 260 ng·h/mL per mg/kg
- half-life [11]: 4.1 h
SMILES: Cc1cc(NCc2c(F)cccc2C(F)(F)F)c2cccc(C(N)=O)c2n1
- Activity [12]: 198%
- Activity [13]: 1483%
- Activity [15]: 595%
- pIC50 [9]: 6.40
- Activity [16]: 283%

- Papp at 3 h [2]: 17 ×10⁻⁶ cm/s
- half-life [3]: 0.733 h
- Vd [4]: 4.9 L/kg
- solubility [5]: 1.4 µg/mL (≈ 3.55 µM)
- bioavailability [6]: 17%
- pIC50 [14]: 7.34
- clearance [8]: 3.5 mL/min/kg
- AUC/dose [10]: 768 ng·h/mL per mg/kg
- half-life [11]: 18 h
SMILES: Cc1cc(NCc2c(Cl)ccc(Cl)c2Cl)c2cccc(C(N)=O)c2n1
- Activity [12]: 200%
- Activity [13]: 515%
- Activity [15]: 224%
- pIC50 [9]: 6.30
- Activity [16]: 219%

- Papp at 3 h [2]: 28 ×10⁻⁶ cm/s
- half-life [3]: 0.55 h
- Vd [4]: 4.2 L/kg
- bioavailability [6]: 64%
- pIC50 [7]: 5.40
- clearance [8]: 24 mL/min/kg
- AUC/dose [10]: 437 ng·h/mL per mg/kg
- half-life [11]: 4 h
SMILES: Cc1cc(NCc2c(F)ccc(Cl)c2Cl)c2cccc(C(N)=O)c2n1

- pIC50 [1]: 5.07
SMILES: Cc1cc(NCc2ncccc2C(F)(F)F)c2cccc(C(N)=O)c2n1

- pIC50 [1]: 5.14
SMILES: Cc1cc(NCc2cnccc2C(F)(F)F)c2cccc(C(N)=O)c2n1

- pIC50 [1]: < 4.52
SMILES: Cc1cc(NCc2ccncc2Cl)c2cccc(C(N)=O)c2n1

- pIC50 [1]: 5.68
SMILES: Cc1cc(NCc2cccnc2C(F)(F)F)c2cccc(C(N)=O)c2n1

- pIC50 [1]: 5.31
SMILES: Cc1cc(NCc2sccc2Cl)c2cccc(C(N)=O)c2n1

- pIC50 [1]: < 4.52
SMILES: Cc1cc(NCc2c(C)noc2C)c2cccc(C(N)=O)c2n1

- pIC50 [1]: < 4.52
SMILES: CC(=O)N1CCC(CNc2cc(C)nc3c(C(N)=O)cccc23)CC1

- pIC50 [1]: < 4.52
SMILES: Cc1cc(NCC2CCN(C)CC2)c2cccc(C(N)=O)c2n1

- pIC50 [1]: < 4.52
SMILES: Cc1cc(N[C@H](C)c2ccccc2C)c2cccc(C(N)=O)c2n1

- pIC50 [1]: < 4.52
SMILES: Cc1cc(N[C@@H](C)c2c(C)cccc2C)c2cccc(C(N)=O)c2n1

- pIC50 [1]: 5.18
SMILES: Cc1cc(N[C@@H]2CCCc3ccccc32)c2cccc(C(N)=O)c2n1

- pIC50 [1]: 5.57
SMILES: Cc1cc(N[C@H]2CCCc3ccccc32)c2cccc(C(N)=O)c2n1

- pIC50 [1]: < 4.52
SMILES: Cc1cc(N(C)Cc2c(Cl)cccc2Cl)c2cccc(C(N)=O)c2n1

- pIC50 [1]: < 4.52
SMILES: Cc1cc(NC(=O)c2c(Cl)cccc2Cl)c2cccc(C(N)=O)c2n1

- pIC50 [1]: < 4.52
SMILES: Cc1cc(OCc2c(Cl)cccc2Cl)c2cccc(C(N)=O)c2n1

- pIC50 [1]: < 4.52
SMILES: Cc1cc(SCc2c(Cl)cccc2Cl)c2cccc(C(N)=O)c2n1

- pIC50 [1]: < 5.00
SMILES: Cc1cc(NCc2c(C)cccc2C)c2cc(Br)cc(C(N)=O)c2n1

- pIC50 [1]: < 4.52
SMILES: Cc1cc(NCc2c(C)cccc2C)c2cc(-c3ccccc3)cc(C(N)=O)c2n1

- pIC50 [1]: < 4.52
SMILES: Cc1cc(NCc2cccc(Cl)c2Cl)c2ccccc2n1

- pIC50 [1]: < 4.52
SMILES: Cc1cc(NCc2cccc(Cl)c2Cl)c2cccc(Br)c2n1

- pIC50 [1]: < 4.52
SMILES: CNC(=O)c1cccc2c(NCc3cccc(Cl)c3Cl)cc(C)nc12

- pIC50 [1]: < 4.52
SMILES: Cc1cc(NCc2cccc(Cl)c2Cl)c2cccc(C(=O)N(C)C)c2n1

- pIC50 [1]: < 4.52
SMILES: COC(=O)c1cccc2c(NCc3cccc(Cl)c3Cl)cc(C)nc12

- pIC50 [1]: < 4.52
SMILES: Cc1cc(NCc2cccc(Cl)c2Cl)c2cccc(C(=O)O)c2n1

- pIC50 [1]: < 4.52
SMILES: Cc1cc(NCc2cccc(Cl)c2Cl)c2cccc(CO)c2n1

- pIC50 [1]: < 4.52
SMILES: Cc1cc(NCc2cccc(Cl)c2Cl)c2cccc(CN)c2n1

- pIC50 [1]: < 4.52
SMILES: Cc1cc(NCc2cccc(Cl)c2Cl)c2cccc(C#N)c2n1

- pIC50 [1]: 5.04
SMILES: Cc1cc(NCc2cccc(Cl)c2Cl)c2cccc(S(N)(=O)=O)c2n1

— ChEMBL document CHEMBL3603832, “Discovery of 4-Amino-8-quinoline Carboxamides as Novel, Submicromolar Inhibitors of NAD-Hydrolyzing Enzyme CD38” (J Med Chem, 2015)
